This note sets out measurements from patent US12594268B2, “Methods of treating Fabry disease in patients having a mutation in the GLA gene” (Amicus Therapeutics, Inc., priority 2018, dated 2026).

This assay has as its target T1, α-Gal A mutant form Q107R (Homo sapiens, UniProt P06280, Q107R).
T1 construct: expressed in transfected cells; host or cells: HEK-293
T1 sequence (P06280 32-429 Q107R): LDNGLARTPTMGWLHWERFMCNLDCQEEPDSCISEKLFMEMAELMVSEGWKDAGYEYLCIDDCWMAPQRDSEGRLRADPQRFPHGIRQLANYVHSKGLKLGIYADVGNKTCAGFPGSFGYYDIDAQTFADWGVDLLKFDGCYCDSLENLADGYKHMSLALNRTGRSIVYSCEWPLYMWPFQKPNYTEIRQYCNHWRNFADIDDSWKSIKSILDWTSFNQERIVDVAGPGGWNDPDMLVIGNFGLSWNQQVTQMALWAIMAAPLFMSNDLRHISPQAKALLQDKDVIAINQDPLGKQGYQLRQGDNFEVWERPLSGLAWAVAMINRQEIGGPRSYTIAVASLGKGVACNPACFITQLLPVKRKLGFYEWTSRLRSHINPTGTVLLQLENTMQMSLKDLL
The assay is described as follows: α-Gal A activity in lysates of transfected HEK-293 cells, Q107R. The class given is cell-based. The protocol: Baseline and 10 μM migalastat α-Gal A activity: Differences in the α-Gal A activity between lysates incubated in the absence and presence of 10 μM migalastat were determined using a one-tailed, Mann Whitney U test; an increase at 10 μM migalastat with a p<0.05 was considered significant.
10 μM migalastat α-Gal A activity (% WT)=(α-Gal A activity in mutant transfected cell lysates incubated with 10 μM migalastat÷α-Gal A activity in wild-type transfected cell lysates without migalastat)*100.
Absolute increase (% WT)=is the 10 μM migalastat α-Gal A activity (% WT) minus the baseline α-Gal A activity (% WT).
Relative increase is the 10 μM migalastat α-Gal A activity in mutant transfected cell lysates÷baseline α-Gal A activity in mutant transfected cell lysates incubated without migalastat.

[1] abbreviates: HEK-293 lysates, 10 μM migalastat, 5 days, mean ± SEM.

SMILES strings stand for the structures.

In the case of `OC[C@H]1NC[C@H](O)[C@@H](O)[C@H]1O` [migalastat, (2R,3S,4R,5S)-2-(hydroxymethyl) piperdine-3,4,5-triol], the “Absolute increase (% WT)” value (10 μM migalastat minus baseline) was 21.5 % WT. This compound returned a Relative increase (10 μM migalastat ÷ baseline activity) of 1.27. Besides, under setting [1], the “10 μM migalastat α-Gal A activity” value came out at 31193 ± 2248 nmol/mg/h and the “10 μM migalastat α-Gal A activity (% WT)” value was found to be 109.8 ± 8.4 % WT.
